Results: patent US10377753B2, “Substituted 4-azaindoles and their use as GluN2B receptor modulators” (Janssen Pharmaceutica NV, priority 2015, dated 2019)
Structures can show the parent of a compound that is named as a salt.

Target: cloned human NR1/NR2B ion channels (Homo sapiens (Human), UniProt Q05586+Q13224)
Test: HNR2BC: effects of test articles on cloned human NR1/NR2B ion channels expressed in mammalian cells (FLIPR calcium flux)
Format: cell-based
Settings: cloned human NR1/NR2B ion channels, Table 5
Outline: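 In a stable Tet-On-induced cell line expressing human GluN1/GluN2B, Calcium 5-loaded cells were preincubated 5 min with compound, then stimulated 5 min with glutamate at ~EC80 plus 10 μM glycine, in pH 7.4 HEPES buffer. FLIPR calcium fluorescence was normalized to control wells.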

cloned human NR1/NR2B ion channels, sequence (Q13224 27-1484, other chains not shown): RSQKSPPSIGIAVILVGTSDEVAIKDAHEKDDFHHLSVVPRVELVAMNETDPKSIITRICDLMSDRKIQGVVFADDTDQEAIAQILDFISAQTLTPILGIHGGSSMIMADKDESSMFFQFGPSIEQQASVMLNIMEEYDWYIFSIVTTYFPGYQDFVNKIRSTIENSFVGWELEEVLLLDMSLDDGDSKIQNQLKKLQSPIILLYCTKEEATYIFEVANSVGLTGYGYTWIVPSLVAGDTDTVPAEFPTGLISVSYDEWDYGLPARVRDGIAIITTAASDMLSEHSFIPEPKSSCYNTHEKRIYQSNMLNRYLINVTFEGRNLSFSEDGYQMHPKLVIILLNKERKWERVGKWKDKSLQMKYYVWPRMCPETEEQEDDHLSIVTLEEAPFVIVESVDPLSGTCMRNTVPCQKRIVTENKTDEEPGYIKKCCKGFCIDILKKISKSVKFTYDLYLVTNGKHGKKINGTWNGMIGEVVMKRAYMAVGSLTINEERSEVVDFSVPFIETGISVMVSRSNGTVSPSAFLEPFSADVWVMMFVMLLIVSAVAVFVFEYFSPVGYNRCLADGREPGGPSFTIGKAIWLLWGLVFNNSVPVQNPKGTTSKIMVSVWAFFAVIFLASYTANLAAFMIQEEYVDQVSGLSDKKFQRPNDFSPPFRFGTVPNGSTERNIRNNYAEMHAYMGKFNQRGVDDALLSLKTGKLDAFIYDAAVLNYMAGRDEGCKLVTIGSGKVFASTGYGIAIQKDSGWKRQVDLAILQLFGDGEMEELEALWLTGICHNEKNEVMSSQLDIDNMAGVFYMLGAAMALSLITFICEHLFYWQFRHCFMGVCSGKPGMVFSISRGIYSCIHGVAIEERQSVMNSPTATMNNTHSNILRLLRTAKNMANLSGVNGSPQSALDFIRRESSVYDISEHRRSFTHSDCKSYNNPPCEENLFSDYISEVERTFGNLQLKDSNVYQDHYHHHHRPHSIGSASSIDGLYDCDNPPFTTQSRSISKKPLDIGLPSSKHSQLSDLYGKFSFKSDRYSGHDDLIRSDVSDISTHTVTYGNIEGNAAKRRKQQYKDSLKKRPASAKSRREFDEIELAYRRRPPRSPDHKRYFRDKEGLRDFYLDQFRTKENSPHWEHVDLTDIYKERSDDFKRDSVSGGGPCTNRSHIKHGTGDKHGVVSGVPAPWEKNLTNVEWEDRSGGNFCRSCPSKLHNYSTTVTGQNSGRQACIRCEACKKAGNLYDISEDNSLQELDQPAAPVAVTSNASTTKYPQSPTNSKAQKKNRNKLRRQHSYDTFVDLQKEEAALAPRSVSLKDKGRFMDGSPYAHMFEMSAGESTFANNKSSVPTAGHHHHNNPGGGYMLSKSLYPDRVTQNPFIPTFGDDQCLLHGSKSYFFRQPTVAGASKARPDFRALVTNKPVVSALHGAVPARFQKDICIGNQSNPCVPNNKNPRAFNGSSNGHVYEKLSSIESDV

Row | IC50 | SMILES
1 | 63.1 nM | CN(C)C(=O)Cn1cc(F)c2ncc(-c3cccs3)cc21 [Example 387, 2-[3-Fluoro-6-(2-thienyl)pyrrolo[3,2-b]pyridin-1-yl]-N,N-dimethyl-acetamide]
2 | 794 nM | CCc1ccc(-c2cnc3ccn(CC(=O)N(C)C)c3c2)s1 [Example 388, 2-[6-(5-Ethyl-2-thienyl)pyrrolo[3,2-b]pyridin-1-yl]-N,N-dimethyl-acetamide trifluoroacetate salt]
3 | 158 nM | O=C(Cn1cc(F)c2ncc(-c3cccs3)cc21)N1CCC1 [Example 389, 1-(Azetidin-1-yl)-2-[3-fluoro-6-(2-thienyl)pyrrolo[3,2-b]pyridin-1-yl]ethanone trifluoroacetate salt]
4 | 316 nM | Cc1ccc(-c2cnc3c(F)cn(CC(=O)N(C)C)c3c2)s1 [Example 390, 2-[3-Fluoro-6-(5-methyl-2-thienyl)pyrrolo[3,2-b]pyridin-1-yl]-N,N-dimethyl-acetamide]
5 | 50.1 nM | CN(C)C(=O)Cn1ccc2ncc(-c3cc(Cl)cs3)cc21 [Example 391, 2-[6-(4-Chloro-2-thienyl)pyrrolo[3,2-b]pyridin-1-yl]-N,N-dimethyl-acetamide trifluoroacetate salt]
6 | 63.1 nM | CCc1ccc(-c2cnc3ccn(CC(=O)N4CCC4)c3c2)s1 [Example 392, 1-(Azetidin-1-yl)-2-[6-(5-ethyl-2-thienyl)pyrrolo[3,2-b]pyridin-1-yl]ethanone trifluoroacetate salt]
7 | 126 nM | CCc1ccc(-c2cnc3c(F)cn(CC(=O)N(C)C)c3c2)s1 [Example 393, 2-[6-(5-Ethyl-2-thienyl)-3-fluoro-pyrrolo[3,2-b]pyridin-1-yl]-N,N-dimethyl-acetamide]
8 | 158 nM | O=C(Cn1ccc2ncc(-c3cc(Cl)cs3)cc21)N1CCC1 [Example 394, 1-(Azetidin-1-yl)-2-[6-(4-chloro-2-thienyl)pyrrolo[3,2-b]pyridin-1-yl]ethanone trifluoroacetate salt]
9 | 50.1 nM | O=C(Cn1cc(F)c2ncc(-c3cccs3)cc21)N1CC(F)C1 [Example 395, 1-(3-Fluoroazetidin-1-yl)-2-[3-fluoro-6-(2-thienyl)pyrrolo[3,2-b]pyridin-1-yl]ethanone trifluoroacetate salt]
10 | 501 nM | CN(C)C(=O)Cn1cc(F)c2ncc(-c3cc(Cl)cs3)cc21 [Example 396, 2-[6-(4-Chloro-2-thienyl)-3-fluoro-pyrrolo[3,2-b]pyridin-1-yl]-N,N-dimethyl-acetamide]
11 | 50.1 nM | O=C(Cn1cc(F)c2ncc(-c3cc(Cl)cs3)cc21)N1CCC1 [Example 397, 1-(Azetidin-1-yl)-2-[6-(4-chloro-2-thienyl)-3-fluoro-pyrrolo[3,2-b]pyridin-1-yl]ethanone trifluoroacetate salt]
12 | 39.8 nM | CCc1ccc(-c2cnc3c(F)cn(CC(=O)N4CC(F)C4)c3c2)s1 [Example 398, 2-[6-(5-Ethyl-2-thienyl)-3-fluoro-pyrrolo[3,2-b]pyridin-1-yl]-1-(3-fluoroazetidin-1-yl)ethanone trifluoroacetate salt]
13 | 158 nM | O=C(Cn1ccc2ncc(-c3cccs3)cc21)N1CCC1 [Example 399, 1-(Azetidin-1-yl)-2-[6-(2-thienyl)pyrrolo[3,2-b]pyridin-1-yl]ethanone]
14 | 501 nM | CN(C)C(=O)Cn1ccc2ncc(-c3cccs3)cc21 [Example 400, N,N-Dimethyl-2-[6-(2-thienyl)pyrrolo[3,2-b]pyridin-1-yl]acetamide]
15 | 631 nM | CCc1ccc(-c2cnc3c(F)cn(CC(=O)N4CCC4)c3c2)s1 [Example 401, 1-(Azetidin-1-yl)-2-[6-(5-ethyl-2-thienyl)-3-fluoro-pyrrolo[3,2-b]pyridin-1-yl]ethanone]
16 | 251 nM | Cc1ccc(-c2cnc3c(F)cn(CC(=O)N4CC(F)C4)c3c2)s1 [Example 402, 1-(3-Fluoroazetidin-1-yl)-2-[3-fluoro-6-(5-methyl-2-thienyl)pyrrolo[3,2-b]pyridin-1-yl]ethanone trifluoroacetate salt]
17 | 100 nM | O=C(Cn1ccc2ncc(-c3sccc3Cl)cc21)N1CCC1 [Example 403, 1-(Azetidin-1-yl)-2-[6-(3-chloro-2-thienyl)pyrrolo[3,2-b]pyridin-1-yl]ethanone]
18 | 31.6 nM | Cc1ncc(-c2cnc3ccn(CC(=O)N4CCC4)c3c2)s1 [Example 404, 1-(Azetidin-1-yl)-2-[6-(2-methylthiazol-5-yl)pyrrolo[3,2-b]pyridin-1-yl]ethanone]
19 | 10000 nM | O=C(Cn1ccc2ncc(-c3cncs3)cc21)N1CCC1 [Example 405, 1-(Azetidin-1-yl)-2-(6-thiazol-5-ylpyrrolo[3,2-b]pyridin-1-yl)ethanone]
20 | 6310 nM | Cc1csc(-c2cnc3c(Cl)cn(CC(=O)N4CCC4)c3c2)c1 [Example 407, 1-(Azetidin-1-yl)-2-[3-chloro-6-(4-methyl-2-thienyl)pyrrolo[3,2-b]pyridin-1-yl]ethanone]
21 | 39.8 nM | CCc1ccc(-c2cnc3c(Cl)cn(CC(=O)N4CCC4)c3c2)s1 [Example 408, 1-(Azetidin-1-yl)-2-[3-chloro-6-(5-ethyl-2-thienyl)pyrrolo[3,2-b]pyridin-1-yl]ethanone]
22 | 200 nM | O=C(Cn1cc(Cl)c2ncc(-c3cccs3)cc21)N1CCC1 [Example 409, 1-(Azetidin-1-yl)-2-[3-chloro-6-(2-thienyl)pyrrolo[3,2-b]pyridin-1-yl]ethanone]
23 | 316 nM | Cc1ccc(-c2cnc3c(Cl)cn(CC(=O)N4CCC4)c3c2)s1 [Example 410, 1-(Azetidin-1-yl)-2-[3-chloro-6-(5-methyl-2-thienyl)pyrrolo[3,2-b]pyridin-1-yl]ethanone]
24 | 25.1 nM | CN(CC(F)(F)F)C(=O)Cn1ccc2ncc(-c3ccc(F)cc3)cc21 [Example 411, 2-[6-(4-Fluorophenyl)pyrrolo[3,2-b]pyridin-1-yl]-N-methyl-N-(2,2,2-trifluoroethyl)acetamide]

More lines, now with the values behind:

Row | SMILES | IC50
25 | O=C(Cn1ccc2ncc(-c3ccc(F)c(F)c3)cc21)N1CCCC1 [Example 367, 2-[6-(3,4-Difluorophenyl)pyrrolo[3,2-b]pyridin-1-yl]-1-pyrrolidin-1-yl-ethanone] | 50.1 nM
26 | Cc1csc(-c2cnc3ccn(CC(=O)N4CC(F)(F)C4)c3c2)c1 [Example 368, 1-(3,3-Difluoroazetidin-1-yl)-2-[6-(4-methyl-2-thienyl)pyrrolo[3,2-b]pyridin-1-yl]ethanone] | 25.1 nM
27 | Cc1csc(-c2cnc3ccn(CC(=O)N4CCCC4)c3c2)c1 [Example 369, 2-[6-(4-Methyl-2-thienyl)pyrrolo[3,2-b]pyridin-1-yl]-1-pyrrolidin-1-yl-ethanone] | 20 nM
28 | Cc1csc(-c2cnc3ccn(CC(=O)N4CC(F)C4)c3c2)c1 [Example 370, 1-(3-Fluoroazetidin-1-yl)-2-[6-(4-methyl-2-thienyl)pyrrolo[3,2-b]pyridin-1-yl]ethanone] | 31.6 nM
29 | O=C(Cn1ccc2ncc(-c3cc(F)c(F)c(F)c3)cc21)N1CC(F)C1 [Example 371, 1-(3-Fluoroazetidin-1-yl)-2-[6-(3,4,5-trifluorophenyl)pyrrolo[3,2-b]pyridin-1-yl]ethanone] | 15.8 nM
30 | O=C(Cn1ccc2ncc(-c3ccc(Cl)s3)cc21)N1CC(F)C1 [Example 372, 2-[6-(5-Chloro-2-thienyl)pyrrolo[3,2-b]pyridin-1-yl]-1-(3-fluoroazetidin-1-yl)ethanone] | 15.8 nM
31 | O=C(Cn1ccc2ncc(-c3ccc(Cl)s3)cc21)N1CCC1 [Example 373, 1-(Azetidin-1-yl)-2-[6-(5-chloro-2-thienyl)pyrrolo[3,2-b]pyridin-1-yl]ethanone] | 20 nM
32 | O=C(Cn1cc(Cl)c2ncc(-c3ccc(F)c(F)c3F)cc21)N1CC(F)C1 [Example 374, 2-[3-Chloro-6-(2,3,4-trifluorophenyl)pyrrolo[3,2-b]pyridin-1-yl]-1-(3-fluoroazetidin-1-yl)ethanone] | 20 nM
33 | CN(C)C(=O)Cn1ccc2ncc(-c3cc(F)c(F)c(F)c3)cc21 [Example 375, N,N-Dimethyl-2-[6-(3,4,5-trifluorophenyl)pyrrolo[3,2-b]pyridin-1-yl]acetamide] | 12.6 nM
34 | CN(C)C(=O)Cn1ccc2ncc(-c3cc(F)cc(F)c3)cc21 [Example 376, 2-[6-(3,5-Difluorophenyl)pyrrolo[3,2-b]pyridin-1-yl]-N,N-dimethyl-acetamide] | 20 nM
35 | CN(C)C(=O)Cn1ccc2ncc(-c3cccc(C(F)F)c3)cc21 [Example 377, 2-[6-[3-(Difluoromethyl)phenyl]pyrrolo[3,2-b]pyridin-1-yl]-N,N-dimethyl-acetamide] | 10 nM
36 | Cc1ccc(-c2cnc3ccn(CC(=O)N4CCC4)c3c2)s1 [Example 380, 1-(Azetidin-1-yl)-2-[6-(5-methyl-2-thienyl)pyrrolo[3,2-b]pyridin-1-yl]ethanone] | 10 nM
37 | O=C(Cn1cc(Cl)c2ncc(-c3ccc(Cl)s3)cc21)N1CCC1 [Example 381, 1-(Azetidin-1-yl)-2-[3-chloro-6-(5-chloro-2-thienyl)pyrrolo[3,2-b]pyridin-1-yl]ethanone] | 15.8 nM
38 | O=C(Cn1cc(F)c2ncc(-c3ccc(F)c(F)c3)cc21)N1CCC1 [Example 382, 1-(Azetidin-1-yl)-2-[6-(3,4-difluorophenyl)-3-fluoro-pyrrolo[3,2-b]pyridin-1-yl]ethanone] | 15.8 nM
39 | O=C(Cn1cc(F)c2ncc(-c3cc(F)c(F)c(F)c3)cc21)N1CCC1 [Example 383, 1-(Azetidin-1-yl)-2-[3-fluoro-6-(3,4,5-trifluorophenyl)pyrrolo[3,2-b]pyridin-1-yl]ethanone] | 15.8 nM
40 | O=C(Cn1cc(Cl)c2ncc(-c3ccc(F)cc3)cc21)C1CC1 [Example 384, 2-[3-Chloro-6-(4-fluorophenyl)pyrrolo[3,2-b]pyridin-1-yl]-1-cyclopropyl-ethanone] | 20 nM
41 | O=C(Cn1ccc2ncc(-c3ccsc3)cc21)N1CCC1 [Example 385, 1-(Azetidin-1-yl)-2-[6-(3-thienyl)pyrrolo[3,2-b]pyridin-1-yl]ethanone trifluoroacetate salt] | 20 nM
